The text below walks through data of PubChem BioAssay (NCI).

Each structure is given as a SMILES string.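 96-well plates; 48 h exposure; 5 concentrations. Endpoints by linear interpolation between flanking doses. Not reached: highest tested concentration assigned. TGI is the concentration that stops growth completely.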

Test systems include A549 NSCLC; ACHN renal; CAKI-1 renal; CCRF-CEM leukemia; COLO 205 colon; HCT-15 colon; HL-60(TB) leukemia; HOP-62 NSCLC; HOP-92 NSCLC; HT29 colon; IGROV1 ovarian; MCF7 breast; NCI-H460 lung; NCI/ADR-RES ovarian; OVCAR-3 ovarian; OVCAR-4 ovarian; OVCAR-8 ovarian; PC-3 prostate; SK-MEL-28 melanoma; UACC-257 melanoma.
Assay in all cases: NCI anticancer screen, dose series, 48 h

Regarding `COP(C)(=O)/C(Cc1ccccc1)=N\O` (stereo not given), the TGI with A549 NSCLC, with ACHN renal, with CAKI-1 renal, with CCRF-CEM leukemia, in the assay with COLO 205 colon and in the assay on HCT-15 colon was over 100 µM each time. Also, the TGI in the assay on HL-60(TB) leukemia, in the assay with HOP-62 NSCLC, in the assay with HOP-92 NSCLC, in the assay with HT29 colon, in the assay with IGROV1 ovarian and in the assay with MCF7 breast was over 100 µM throughout. Also, the TGI in the assay with NCI-H460 lung, with NCI/ADR-RES ovarian, in the assay on OVCAR-3 ovarian, in the assay with OVCAR-4 ovarian, in the assay on OVCAR-8 ovarian and in the assay with PC-3 prostate was over 100 µM throughout. For the same molecule, the TGI in the assay with SK-MEL-28 melanoma and in the assay with UACC-257 melanoma was over 100 µM in each case.

`COc1ccc(Cc2nc3cc(C(F)(F)F)ccc3n2CCCN(C)C)cc1`: the TGI with A549 NSCLC worked out at 38.9 µM; in the assay on ACHN renal, 79.9 µM; in the assay with CAKI-1 renal it was 56 µM; with CCRF-CEM leukemia, 44 µM; with COLO 205 colon, 34.3 µM; in the assay on HCT-15 colon, 48.8 µM. Further, the TGI with HL-60(TB) leukemia is 27.1 µM; in the assay with HOP-62 NSCLC it was over 100 µM; in the assay on HOP-92 NSCLC, over 100 µM; with HT29 colon it was 39.9 µM; in the assay on IGROV1 ovarian, 78.9 µM; in the assay with MCF7 breast, 32.3 µM. Moreover, the TGI in the assay with NCI-H460 lung is 46.7 µM; with NCI/ADR-RES ovarian it was 45.2 µM; with OVCAR-3 ovarian it was 46.1 µM; in the assay with OVCAR-4 ovarian it was 80.4 µM; in the assay on OVCAR-8 ovarian, over 100 µM; in the assay with PC-3 prostate it was 75 µM. For the same molecule, the values for the TGI with SK-MEL-28 melanoma and with UACC-257 melanoma were 34.6 µM and 33.2 µM, respectively.
